Measurements from patent publication US20150196030A1, “HERBICIDAL COMPOSITION CONTAINING 4-AMINO-3-CHLORO-6-(4-CHLORO-2-FLUORO-3-METHOXYPHENYL) PYRIDINE-2-CARBOXYLIC ACID OR DERIVATIVES THEREOF, FLUROXYPYR OR DERIVATIVES THEREOF, AND PHENOXY AUXINS OR DERIVATIVES THEREOF” (DOW AGROSCIENCES LLC, priority 2014, published 2015).

How the values were obtained:
Assay in all cases: Field trial, post-emergence weed control, visual percent control
Assay type in all cases: in vivo
[1] = tested on: STEME: chickweed, common (Stellaria media); conditions: 59 DAA, AB
Excerpt: (§1) Nine small plot field trials were established across various ecozones in Alberta, Saskatchewan, Manitoba and Ontario, Canada, between 2011 and 2014 to evaluate potential synergy between 1) halauxifen-methyl (100 grams acid equivalent per kilogram (g ae/kg)), fluroxypyr-meptyl as Starane II EC (333 grams acid equivalent per liter (g ae/L) fluroxypyr), and MCPA 2-ethylhexyl ester (MCPA ester; 600 g ae/L), 2) the halauxifen-methyl+fluroxypyr premix (16.25 g ae/L halauxifen-methyl and 250 g ae/L fluroxypyr-meptyl) and MCPA ester (600 g ae/L), and 3) halauxifen-methyl (100 g ae/kg), fluroxypyr-meptyl as Starane II EC (333 g ae/L fluroxypyr), and 2,4-D 2-ethylhexyl ester (2,4-D ester; 660 g ae/L). In trials evaluating synergy between halauxifen-methyl, fluroxypyr-meptyl, and MCPA ester, actives were applied individually at rates of 6.5, 100, and 420 grams acid equivalent per hectare (g ae/ha), respectively, and in a three-way combination at identical rates. When applied individually, halauxifen-methyl was applied in all trials with Turbocharge adjuvant (50% mineral oil/39.5% surfactant blend) at 0.5% volume per volume (v/v). In trials evaluating synergy between the halauxifen-methyl+fluroxypyr premix, and MCPA ester, premix and MCPA ester were applied individually at rates of 82 g ae/ha (5 g ae/ha halauxifen-methyl+77 g ae/ha fluroxypyr) or 106.5 g ae/ha (6.5 g ae/ha halauxifen-methyl+100 g ae/ha fluroxypyr), and 350 or 420 g ae/ha MCPA ester, respectively, and in a two-way combination at rates of 82 g ae/ha premix+350 g ae/ha MCPA ester or […] premix+420 g ae/ha MCPA ester. When applied individually, the halauxifen-methyl+fluroxypyr premix was applied at a rate of 106.5 g ae/ha without an adjuvant, or at a rate of 82 g ae/ha with Turbocharge adjuvant at 0.5% v/v. In trials evaluating synergy between halauxifen-methyl, fluroxypyr-meptyl, and 2,4-D ester, actives were applied individually at rates of 5, 77, and 350 grams acid equivalent per hectare (g ae/ha), respectively, and in a three-way combination at identical rates. When applied individually, halauxifen-methyl was applied with Intake adjuvant (586 grams per liter (g/L) paraffinic oil/242 g/L alkoxylated alcohol non-ionic surfactants) at 1% volume per volume (v/v).
(§2) Trials were established as randomized complete blocks (RCBD) with four replicates. Individual treatments were 2-3 meters (m) wide and 10-11 m long. An untreated control was included in each trial. All trial sites had naturally occurring populations of weeds, which in some trials were augmented with additional weed seeds during trial establishment.
(§3) Herbicides were applied with backpack, bicycle, or tractor-mounted sprayers using carbon dioxide (CO2) as a propellant. All sprayers delivered a uniform spray pattern that provided thorough coverage of the foliage using a water volume of 100-200 liters per hectare (L/ha). All herbicides were applied post-emergence in the spring to early-summer. At the time of herbicide applications, spring wheat, durum wheat, and winter wheat crops were at the four-leaf to three-node stage. Broadleaf weeds were at the seedling stage at the time of herbicide applications.
(§4) Foliar damage to target pest plants was visually assessed as percent control, compared to an untreated control plot. The assessments were based on a percent visual reduction in pest plant biomass and/or stand reduction of weed population. In general, three-to-four replicates were assessed for each treatment, and the results for each experiment (trial) are presented as overall average control. The efficacy of all treatments was assessed at 13-22 days after application (DAA) for an early season rating, 23-39 DAA for a mid-season rating, and 41-84 DAA for a late-season rating. The data were statistically analyzed using various statistical methods, generally including a Tukey's HSD Factorial Analysis of Variance with a significance level of 5%. […]

[2] = tested on: BRSNN: canola, volunteer (Brassica napus); conditions: SK
Excerpt: as §1, §2, §3, §4

[3] = tested on: POLPE: lady's-thumb (Polygonum persicaria)
Excerpt: as §1, §2, §3, §4

[4] = tested on: TRFPR: red clover (Trifolium pratense); conditions: 84 DAA, ON, halauxifen-methyl 5, fluroxypyr-meptyl 77, 2,4-D ester 350 g ae/ha, each alone or three-way combination
Excerpt: as §1, §2, §3, §4

[5] = tested on: GAETE: hemp-nettle (Galeopsis tetrahit); conditions: 14 DAA, AB
Excerpt: as §1, §2, §3, §4

[6] = tested on: AMBTR: giant ragweed (Ambrosia trifida); conditions: 49 DAA, ON, halauxifen-methyl 5, fluroxypyr-meptyl 77, 2,4-D ester 350 g ae/ha, each alone or three-way combination
Excerpt: as §1, §2, §3, §4

[7] = tested on: AMBEL: ragweed, common (Ambrosia artemisiifolia); conditions: 28 DAA, ON, premix 5 + 77 (82) g ae/ha, MCPA ester 350 g ae/ha, alone or combined
Excerpt: as §1, §2, §3, §4

[8] = tested on: POLCO: wild buckwheat (Polygonum convolvulus); conditions: premix 6.5 + 100 (106.5) g ae/ha, MCPA ester 420 g ae/ha, alone or combined
Excerpt: as §1, §2, §3, §4

[9] = tested on: ARTAB: absinth wormwood (Artemisia absinthium); conditions: 47 DAA, MB, premix 6.5 + 100 (106.5) g ae/ha, MCPA ester 420 g ae/ha, alone or combined
Excerpt: as §1, §2, §3, §4

[10] = halauxifen-methyl 6.5, fluroxypyr-meptyl 100, MCPA ester 420 g ae/ha, each alone or three-way combination
[11] = 14 DAA, halauxifen-methyl 6.5, fluroxypyr-meptyl 100, MCPA ester 420 g ae/ha, each alone or three-way combination
[12] = 33 DAA, halauxifen-methyl 6.5, fluroxypyr-meptyl 100, MCPA ester 420 g ae/ha, each alone or three-way combination
[13] = 14 DAA, AB, halauxifen-methyl 6.5, fluroxypyr-meptyl 100, MCPA ester 420 g ae/ha, each alone or three-way combination
[14] = 49 DAA, AB, halauxifen-methyl 6.5, fluroxypyr-meptyl 100, MCPA ester 420 g ae/ha, each alone or three-way combination
[15] = 57 DAA, AB, halauxifen-methyl 6.5, fluroxypyr-meptyl 100, MCPA ester 420 g ae/ha, each alone or three-way combination
[16] = 59 DAA, AB, halauxifen-methyl 6.5, fluroxypyr-meptyl 100, MCPA ester 420 g ae/ha, each alone or three-way combination
[17] = SK, 49 DAA or 57 DAA, halauxifen-methyl 6.5, fluroxypyr-meptyl 100, MCPA ester 420 g ae/ha, each alone or three-way combination
[18] = premix 6.5 + 100 (106.5) g ae/ha, MCPA ester 420 g ae/ha, alone or combined

SMILES	Obs: Observed percent weed control [1, 10] [%]	Obs: Observed percent weed control [2, 11] [%]	Obs: Observed percent weed control [2, 12] [%]	Obs: Observed percent weed control [3, 13] [%]	Obs: Observed percent weed control [3, 14] [%]	Obs: Observed percent weed control [3, 15] [%]	Obs: Observed percent weed control [3, 16] [%]	Obs: Observed percent weed control [3, 17] [%]	Obs: Observed percent weed control [4] [%]	Obs: Observed percent weed control [5, 10] [%]	Obs: Observed percent weed control [6] [%]	also measured
CCCCCCC(C)OC(=O)COc1nc(F)c(Cl)c(N)c1Cl (centres unmarked) [Fluroxypyr-meptyl, 1-methylheptyl 2-[(4-amino-3,5-dichloro-6-fluoro-2-pyridinyl)oxy]acetate]	15	30	20	0	0	23	61	25	12.4	39	21.7	–
CCCCC(CC)COC(=O)COc1ccc(Cl)cc1C (centres unmarked) [MCPA ester, 2-ethylhexyl 2-(4-chloro-2-methylphenoxy)acetate]	0	80	95	0	0	0	35	30	–	31	–	Obs: Observed percent weed control [7]: 15%; Obs: Observed percent weed control [1, 18]: 0%; Obs: Observed percent weed control ([2]; 33 DAA, premix 6.5 + 100 (106.5) g ae/ha, MCPA ester 420 g ae/ha, alone or combined): 95%; Obs: Observed percent weed control ([3]; 14 DAA, MB, premix 5 + 77 (82) g ae/ha, MCPA ester 350 g ae/ha, alone or combined): 38%; Obs: Observed percent weed control ([3]; 14 DAA, MB, premix 6.5 + 100 (106.5) g ae/ha, MCPA ester 420 g ae/ha, alone or combined): 38%; Obs: Observed percent weed control ([3]; 34 DAA, MB, premix 5 + 77 (82) g ae/ha, MCPA ester 350 g ae/ha, alone or combined): 40%; Obs: Observed percent weed control ([3]; 34 DAA, MB, premix 6.5 + 100 (106.5) g ae/ha, MCPA ester 420 g ae/ha, alone or combined): 40%; Obs: Observed percent weed control ([3]; 49 DAA (likely), MB, premix 6.5 + 100 (106.5) g ae/ha, MCPA ester 420 g ae/ha, alone or combined): 27%; Obs: Observed percent weed control ([3]; 49 DAA, AB, premix 6.5 + 100 (106.5) g ae/ha, MCPA ester 420 g ae/ha, alone or combined): 0%; Obs: Observed percent weed control ([3]; 54 DAA, MB, premix 6.5 + 100 (106.5) g ae/ha, MCPA ester 420 g ae/ha, alone or combined): 38%; Obs: Observed percent weed control ([3]; 57 DAA, AB, premix 6.5 + 100 (106.5) g ae/ha, MCPA ester 420 g ae/ha, alone or combined): 0%; Obs: Observed percent weed control ([3]; 59 DAA, AB, premix 6.5 + 100 (106.5) g ae/ha, MCPA ester 420 g ae/ha, alone or combined): 35%; Obs: Observed percent weed control ([8]; 35 DAA, MB): 0%; Obs: Observed percent weed control ([8]; 47 DAA, MB): 0%; Obs: Observed percent weed control ([8]; 63 DAA, AB): 43%; Obs: Observed percent weed control [5, 18]: 31%; Obs: Observed percent weed control [9]: 0%
COC(=O)c1nc(-c2ccc(Cl)c(OC)c2F)cc(N)c1Cl [Halauxifen-methyl, methyl 4-amino-3-chloro-6-(4-chloro-2-fluoro-3-methoxyphenyl)-2-pyridinecarboxylate]	24	20	15	0	0	0	33	10	15	79	20	–
CCCCC(CC)COC(=O)COc1ccc(Cl)cc1Cl (centres unmarked) [2,4-D ester, 2-ethylhexyl(2,4-dichlorophenoxy)acetate]	–	–	–	–	–	–	–	–	7.4	–	83	–
